# Data published in PubChem BioAssay AID1996.
# Conditions: buffer; pH 7.4; 200.0 µM
row,SMILES,solubility kinetic
1,Cc1ccc(C)c(OCCN2CCOCC2)c1,24.9 µg/mL
2,CC1CCCC(C)N1CC(O)COCc1ccccc1F.Cl (stereo unspecified),45.6 µg/mL
3,CCN(CC(=O)NCc1cccs1)C(=O)c1cccc(Cl)c1,> 50.5 µg/mL
4,O=C(NCCc1ccccc1)c1cccc(N2C(=O)C3CC=CCC3C2=O)c1 (stereo unspecified),47.2 µg/mL
5,CCCC(CCC)C(=O)Nc1cccc(-c2cn3c(n2)SCC3)c1,4 µg/mL
6,CCCn1c(=O)c(C(=O)Nc2cccc(C)c2)c(O)c2ccccc21,< 0.4 µg/mL
7,CCOc1ccc(C(=O)NCC(=O)N2CCCCCCC2)cc1,> 47.8 µg/mL
8,CC1=NOC(=O)/C1=C/c1ccc2c(c1)OCO2,25.1 µg/mL
9,Cc1[nH]c(=O)c(C#N)c(C)c1[N+](=O)[O-],27.3 µg/mL
10,CCC(C(=O)Nc1ccon1)c1ccccc1 (stereo unspecified),> 34.5 µg/mL
11,COc1ccc(NC(=O)CSc2nc3nc(C)cc(C)c3c(=O)[nH]2)cc1OC,6.5 µg/mL
12,CN(C(=O)c1ccc(-c2ccccc2)cc1)C1CCCCC1,1.5 µg/mL
13,NC(=S)Nc1ccc2c(c1)OCO2,> 29.4 µg/mL
14,COc1ccc(C(=O)OCC(=O)c2ccc3c(c2)NC(=O)CO3)cc1OC,10.8 µg/mL
15,Cc1cc(C(=O)Nc2nccs2)c2cc(F)ccc2n1,3.1 µg/mL
16,CCC1(c2ccc(N)cc2)CCC(=O)NC1=O (stereo unspecified),> 34.8 µg/mL
17,CN(CC(=O)Nc1cccc(F)c1)C(=O)CSc1ccccc1F,46.7 µg/mL
18,CCN(C(=O)COC(=O)c1ccccc1O)c1nc2ccccc2s1,2.4 µg/mL
19,CCOC(=O)CNC(=O)c1c(C)nn(C)c1Cl,> 39 µg/mL
20,COc1ccc(CN2CCOCCOCCOCC2)cc1,39.1 µg/mL
21,COc1ccc(CCNC(=O)c2ccc(=O)[nH]c2)cc1OC,> 45.3 µg/mL
22,COc1ccc(C(=O)NCCN2CCOCC2)c(OC)c1,> 44.2 µg/mL
23,Cn1c(OCc2cccnc2)nc2c1c(=O)n(Cc1ccc(F)cc1)c(=O)n2C,7.7 µg/mL
24,CCOc1ccc(C(=S)N2CCCC2)c(OCC)c1,> 41.9 µg/mL
25,CCOC(=O)c1cnc(C(F)(F)F)nc1Oc1ccccc1,11.7 µg/mL

row,SMILES,solubility kinetic
1,Cn1ccnc1SCC(=O)Nc1nc2c(F)c(F)c(F)cc2s1,0.6 µg/mL
2,COc1ccc(NS(=O)(=O)c2c(C)[nH]c(=O)[nH]c2=O)cc1OC,> 51.2 µg/mL
3,NC(=O)C1CCN(C(=O)Nc2csc3ccccc23)CC1,42 µg/mL
4,O=c1oc2ccccc2n1Cc1ccccc1F,4.2 µg/mL
5,COc1ccc(N2CCN(C(=O)Cc3ccc(Cl)cc3)CC2)cc1,50.1 µg/mL
6,O=C(COC(=O)/C=C/c1cccc(Cl)c1)NC1CC1,4.8 µg/mL
7,Cc1cc(C(=O)CSc2nc(N)cc(=O)[nH]2)c(C)n1CC1CCCO1 (stereo unspecified),> 54.4 µg/mL
8,COc1ccc(C(=O)CC(=O)C(=O)Nc2cccc(F)c2)cc1,19 µg/mL
9,Cc1oc(/N=C/c2ccccc2)c(C#N)c1C,9.2 µg/mL
10,Nc1ccc(-c2nc3ccc(N)cc3s2)cc1,17.7 µg/mL
11,CC(=O)c1sc(NC(=O)c2ccc3c(c2)OCO3)nc1C,0.9 µg/mL
12,Cc1ccc(NC(=O)c2cccnc2)c([N+](=O)[O-])c1,> 38.6 µg/mL
13,COc1cccc(-c2cc(C(=O)NCC3CCCO3)on2)c1 (stereo unspecified),> 45.3 µg/mL
14,CSc1ncccc1C(=O)OCC(=O)NCCCc1ccccc1,20.6 µg/mL
15,O=C(Cc1ccccc1)NCC(=O)OCc1ccccc1F,17.3 µg/mL
16,O=C1CN(C(=O)COC(=O)[C@@H]2CCCN2S(=O)(=O)c2ccc(Cl)cc2)c2ccccc2N1,59.1 µg/mL
17,CCc1ccc(S(=O)(=O)NC2CCCCNC2=O)cc1 (stereo unspecified),> 44.5 µg/mL
18,CCc1ccccc1S(=O)(=O)c1c(C)cc(C)nc1Cl,24.3 µg/mL
19,Cc1cccc(Nc2nc(N)nc(CCl)n2)c1,> 37.5 µg/mL
20,COC(=O)c1ccc(S(=O)(=O)N2CCCCCC2)n1C,> 45.1 µg/mL
21,Cc1ccc(NC2=CC(=O)CC(C)(C)C2)cc1F,31.5 µg/mL
22,CCON1C(=O)C(C)(C)N(OCC)C(=O)C1(C)C,> 38.7 µg/mL
23,CN(CC(=O)NCc1ccccn1)S(=O)(=O)c1ccc(F)cc1,> 50.6 µg/mL
24,Brc1ccc(OCCCOc2cccc3cccnc23)cc1,< 0.8 µg/mL
25,O=C(COC(=O)c1cccnc1Cl)NCc1cccs1,44.1 µg/mL

row,SMILES,solubility kinetic
1,Cc1ccc(NC(=O)CSc2ncccn2)cc1S(=O)(=O)N1CCOCC1,> 61.3 µg/mL
2,O=[N+]([O-])c1ccccc1S(=O)(=O)NCCSc1ccccc1,16.5 µg/mL
3,Cc1ccc(S(=O)(=O)NC(=O)c2ccc(F)cc2)c(C)c1,> 46.1 µg/mL
4,O=C(COc1cccc(F)c1)Nc1nc(-c2ccncc2)cs1,5 µg/mL
5,CCOc1ccc(S(=O)(=O)NCC2CCCO2)c2ccccc12 (stereo unspecified),42.2 µg/mL
6,COc1ccc(OCC2CCNCC2)cc1.Cl,36.5 µg/mL
7,O=C(CN1CCN(Cc2cccc(F)c2)CC1)NCc1ccccc1,43.1 µg/mL
8,NC(=O)Cc1nc(-c2ccc(F)cc2)cs1,> 35.4 µg/mL
9,COC(=O)CN(c1cccc(C)c1)S(=O)(=O)c1ccccc1,41.7 µg/mL
10,Cc1c(C#N)c2ccccc2n1C,19.9 µg/mL
11,CCN(Cc1ccccc1)C(=O)COC(=O)c1cnc(C)cn1,38 µg/mL
12,O=C(NCCNC(=O)c1ccc(Cl)cc1Cl)c1ccccn1,43.4 µg/mL
13,CCN(CC(=O)N1CCCCCC1)S(=O)(=O)c1ccc(C)cc1,> 50.8 µg/mL
14,CN1CCN(C(=O)/C=C/c2cccc(Cl)c2)CC1,> 39.7 µg/mL
15,CC1(C(=O)Nc2ccc(S(=O)(=O)Nc3ncccn3)cc2)CCCC1,> 54.1 µg/mL
16,COc1ccc(-c2nc3cc([N+](=O)[O-])ccc3o2)cc1OC,< 0.3 µg/mL
17,O=C(Cc1nc2ccccc2[nH]1)c1ccc(Cl)cc1,24.2 µg/mL
18,Cc1cccc(C)c1OCCCn1ccnc1,20.1 µg/mL
19,c1ccc2nc(-c3nccs3)ccc2c1,10.3 µg/mL
20,Cc1c(O)c2ccccc2n(-c2ccccc2)c1=O,> 37.7 µg/mL
21,O=C(CN1CCCCCC1)Nc1c(Cl)cc(Cl)cc1Cl,42.1 µg/mL
22,N#Cc1cccc(NC(=O)COC(=O)c2cc(S(=O)(=O)Nc3ccccc3Cl)ccc2O)c1,40.4 µg/mL
23,Cc1cc(C)c(C(=O)NCCCN2CCOCC2)c(C)c1,> 43.6 µg/mL
24,O=C(CN1C(=O)c2cccc3cccc1c23)NC1CCCC1,4.4 µg/mL
25,O=C(OCC(=O)N1CCCC1)c1cc(=O)c2ccccc2o1,> 45.2 µg/mL

row,SMILES,solubility kinetic
1,COc1cc(/C=C/C(=O)OCC(=O)NCCc2ccc(F)cc2)ccc1OC(F)F,4 µg/mL
2,Cc1cccc(C)c1NC(=O)NC1CCc2ccccc21 (stereo unspecified),1 µg/mL
3,CN(C)CCCC1Sc2ccccc2Sc2ccccc21.O=C(O)C(=O)O (stereo unspecified),> 60.8 µg/mL
4,CCCNC(=O)C(=O)NCC1CCCN1CC (stereo unspecified),36 µg/mL
5,Cc1ccc(CNC(=O)C2CC(=O)N(CCC(C)C)C2)cc1 (stereo unspecified),40.5 µg/mL
6,Cl.c1ccc2c(N3CCOCC3)c3c(nc2c1)CCC3,> 43.6 µg/mL
7,O=c1[nH]c(=S)n(-c2ccc(F)cc2)c(O)c1/C=N/N1CCOCC1,> 52.6 µg/mL
8,Cc1[nH]c2ccccc2c(=O)c1C(=O)/C=C/c1ccccc1,35.8 µg/mL
9,CC(=O)Nc1c(-c2ccc3ccccc3c2)nc2ccccn12,10.7 µg/mL
10,COc1ccccc1C(=O)NCCNC(=O)c1ccc(C)nc1,45.7 µg/mL
11,O=c1c([N+](=O)[O-])cccn1Cc1ccccc1Cl,> 39.7 µg/mL
12,O=C(NCc1ccc(Cl)cc1)C1CCN(c2cnccn2)CC1,> 49.6 µg/mL
13,Cc1c(C(=O)O/N=C(\N)c2ccccn2)cccc1[N+](=O)[O-],5.2 µg/mL
14,Cc1cc(/C=C2/NC(=O)NC2=O)c(C)n1-c1ccncc1,> 42.3 µg/mL
15,O=C(O)C1C2C=CC(C2)C1C(=O)NCc1cccc(Cl)c1 (stereo unspecified),43.3 µg/mL
16,Oc1cccc(/C=C/c2ccc3cccc(O)c3n2)c1,2.3 µg/mL
17,COc1cccc(NC(=O)Nc2ccc3c(c2)CCC3)c1,0.3 µg/mL
18,COc1cccc(C(CNC(=O)c2ccc(Cl)c(S(=O)(=O)N3CCCC3)c2)N(C)C)c1 (stereo unspecified),> 69.9 µg/mL
19,CC(NC(=O)C1c2ccccc2Oc2ccccc21)C1CCCO1 (stereo unspecified),37.8 µg/mL
20,CSc1ncccc1C(=O)NC(C)CCc1ccccc1 (stereo unspecified),11.9 µg/mL
21,Clc1ccc(-c2nc3cc(CN4CCCCC4)ccc3o2)cc1,23.1 µg/mL
22,CCN(C(=S)NC(=O)C1CC1)c1ccccc1,> 37.3 µg/mL
23,OC(COc1ccc(Cl)cc1)CN1CCN(c2ccccn2)CC1 (stereo unspecified),33.8 µg/mL
24,CC(C)c1ccccc1NC(=O)CN1C(=O)c2ccccc2C1=O,1.6 µg/mL
25,CCCC12CN3CCN(C1)CC(CCC)(C3)C2=O,30.9 µg/mL

row,SMILES,solubility kinetic
1,COc1ccccc1NC(=S)NC1CCCC1,35.9 µg/mL
2,O=C(COc1ccc(F)c(Cl)c1)N1CCCCCCC1,32.8 µg/mL
3,COc1ccc(Nc2ncnc3sc(-c4ccccc4)cc23)c(OC)c1,0.6 µg/mL
4,Cc1ccc(N2CC(C(=O)NCCN3CCOCC3)CC2=O)cc1 (stereo unspecified),> 49.7 µg/mL
5,Fc1ccccc1CNCCc1ccc2c(c1)OCO2,40.5 µg/mL
6,O=C(N/C(=C/c1cccs1)C(=O)N1CCCC1)c1ccccc1,46.5 µg/mL
7,CCC(=O)c1cn(CC(=O)Nc2ccc(C)cc2)c2ccccc12,< 0.3 µg/mL
8,CC(C)(C)NC(=S)N1CCn2cccc2C1c1cccnc1 (stereo unspecified),33.5 µg/mL
9,CCn1c(=O)c([N+](=O)[O-])c(Cl)c2ccccc21,3.3 µg/mL
10,CCOC(=O)Cc1csc(NC(=O)/C=C/c2ccccc2Cl)n1,< 0.4 µg/mL
11,NC(=O)c1ccc[n+](CC(=O)NCc2ccc(Cl)cc2)c1.[Cl-],> 51 µg/mL
12,O=C(NCCCN1CCCC1)Nc1ccc(F)cc1,35.2 µg/mL
13,COc1ccc(CNC(=O)CCn2c(=O)[nH]c3ccccc3c2=O)cc1,2.9 µg/mL
14,COc1cccc(NC(=O)N(CCN(C)C)C(C)c2cccnc2)c1 (stereo unspecified),> 51.4 µg/mL
15,O=C(COC(=O)c1ccccc1O)NCc1ccc2c(c1)OCO2,5.7 µg/mL
16,CCS(=O)(=O)Nc1cccc(-c2cn3c(n2)SCC3)c1,> 46.4 µg/mL
17,O=C(COC(=O)c1ccc(F)cc1F)Nc1ncccn1,> 44 µg/mL
18,C=CCn1c(O)c(/C=C2/C=c3ccccc3=N2)c(=O)[nH]c1=S,1.2 µg/mL
19,Cn1c(=O)c2c(nc(Cl)n2CCOc2ccccc2)n(C)c1=O,6.7 µg/mL
20,CSc1ccccc1Nc1ncnc(N)n1,25.8 µg/mL
21,COc1ccc2cc(Br)ccc2c1CC(=O)N(C)C,21.1 µg/mL
